In publication PMC12067444, “Synthesis and Pharmacological Characterization of Novel Peripheral Cannabinoid-1 Receptor Blockers Based on a Tricyclic Scaffold” (Journal of Medicinal Chemistry, 2025):
Where two headings read alike, the source gives them in different places.

Legend:
[1] = Tissue distribution after acute oral administration; type: in vivo, mouse; conditions: male, C57Bl/6J, mouse, 1 mg/kg PO, 1 h post-acute administration
Procedure: Male C57Bl/6J mice aged 7–9 weeks (3–4 mice per compound) were fasted overnight before administering each test compound. The compounds were accurately weighed and mixed with an appropriate vehicle to prepare a clear oral solution. The formulations were freshly prepared on the dosing day, and the mice were administered the compound via oral gavage within 4 h of formulation preparation. 1, 2, 4, and 8 h after compound administration, the mice were euthanized, and approximately 200 μL of blood was collected via cardiac puncture for plasma preparation. Brain and liver tissues were harvested and processed for analysis. Sample analysis was performed using LC-MS/MS, as described in detail in the SI. […]
calculated using the equation:
Lucif er yellow = VV bbbbbbbbbbbbbbbbbbbb ×RR FFFF bbbbbbbbbbbbbbbbbbbb ×100 […]
Measurements of BNS808 using LC-MS/MS. MS/MS analyses were conducted using a Sciex QTRAP® 6500+ mass spectrometer (Framingham, MA, USA). Air was […]
Infinity 1031 nitrogen generator (Peak Scientific, Inchinnan, Scotland). Purified air […]
generator to ensure a continuous and stable air supply.

[2] = Brain compound levels in the CNS side-effect study (Figure 2H); type: in vivo; conditions: male, C57Bl/6J, mouse, brain; rimonabant 10 mg/kg PO, 1 h after administration
Procedure: The ability of BNS808 and rimonabant (as a positive control) to induce centrally mediated hyperactivity in mice (A–C). Wild-type, male, C57Bl/6J mice received a single dose of rimonabant (10 mg/kg, PO), BNS808 (1 or 10 mg/kg, PO) or vehicle, and the Promethion High-Definition Behavioral Phenotyping System monitored the activity profile. In addition, the ability of BNS808 and rimonabant (as a positive control) to inhibit the hypomotility induced by a CB1R receptor agonist (HU210; 30 μg/kg, IP) was tested in wild-type, male, C57Bl/6J mice which received a single dose of rimonabant (10 mg/kg, PO) or BNS808 (1 or 10 mg/kg, PO) or vehicle (D–F). […] Data represent the mean ± SEM from 4 to 8 mice per group. *P < 0.05 vs Vehicle-treated control. ^#P < 0.05 vs rimonabant.

[3] = system: mice; test: Cataleptic behavior (bar test) induced by WIN-55,212; type: in vivo, mouse; conditions: rimonabant 10 mg/kg PO, BNS808 1 mg/kg; 30 min before WIN-55,212 3 mg/kg IP; bar test at 60 min
Procedure: Catalepsy was assayed using the bar test. Mice were taken out of their home cages, and their forepaws were placed on a horizontal bar measuring 0.5 cm in diameter, positioned 4 cm above the bench surface. Typically, vehicle-treated mice released the bar within 2 s. Cataleptic behavior was defined as the mice remaining motionless, grasping onto the bar, with an arbitrary cutoff of 30 s. The CB1R antagonists, including rimonabant at doses 1 and 10 mg/kg and BNS808 at a dose of 1 mg/kg, were administered 30 min before the IP injection of 3 mg/kg WIN-55,212 (a CB1R agonist). The test was conducted 60 min after the administration of the agonist.

Cc1c(C(=O)NN2CCCCC2)nn(-c2ccc(Cl)cc2Cl)c1-c1ccc(Cl)cc1 [rimonabant]
Kp at 1 h ([1]; brain / plasma, read-out: brain-to-plasma (B/P) ratio): 4.28
concentration at 1 h ([1]; brain, read-out: brain concentration): 128 ng/g
Kp at 1 h ([1]; liver / plasma, read-out: liver/plasma (L/P) ratio): 7.4
concentration at 1 h ([1]; liver, read-out: liver concentration): 226 ng/g
concentration at 1 h ([1]; plasma, read-out: plasma concentration): 30 ng/mL
concentration at 1 h [2]: 600 ng/g
blockade of WIN-55,212-induced cataleptic behavior [3]: blocked the cataleptic behavior
